“Also recorded” adds a separate entry of the source. Read-outs that look alike come from different tables or passages of the source.
Tests used:
[1] = target: T1, transient outward potassium current, ITo (Rattus norvegicus, UniProt Q62897+Q63881); experiment: ITo current block (dose-response, I/V), whole-cell patch clamp in rat cardiomyocytes; assay type: cell-based, rat (Sprague Dawley); conditions: 15 min pre-incubation, n = 32, 6 animals; for IC50: Hill equation fit to Gmax,[X]/Gmax,[ctrl], partial block
T1 construct: INa and ITo were recorded from freshly isolated left ventricular cardiomyocytes; endogenous in cells; host or cells: freshly isolated left ventricular cardiomyocytes of adult Sprague Dawley rats
T1 sequence (Q63881 1-630): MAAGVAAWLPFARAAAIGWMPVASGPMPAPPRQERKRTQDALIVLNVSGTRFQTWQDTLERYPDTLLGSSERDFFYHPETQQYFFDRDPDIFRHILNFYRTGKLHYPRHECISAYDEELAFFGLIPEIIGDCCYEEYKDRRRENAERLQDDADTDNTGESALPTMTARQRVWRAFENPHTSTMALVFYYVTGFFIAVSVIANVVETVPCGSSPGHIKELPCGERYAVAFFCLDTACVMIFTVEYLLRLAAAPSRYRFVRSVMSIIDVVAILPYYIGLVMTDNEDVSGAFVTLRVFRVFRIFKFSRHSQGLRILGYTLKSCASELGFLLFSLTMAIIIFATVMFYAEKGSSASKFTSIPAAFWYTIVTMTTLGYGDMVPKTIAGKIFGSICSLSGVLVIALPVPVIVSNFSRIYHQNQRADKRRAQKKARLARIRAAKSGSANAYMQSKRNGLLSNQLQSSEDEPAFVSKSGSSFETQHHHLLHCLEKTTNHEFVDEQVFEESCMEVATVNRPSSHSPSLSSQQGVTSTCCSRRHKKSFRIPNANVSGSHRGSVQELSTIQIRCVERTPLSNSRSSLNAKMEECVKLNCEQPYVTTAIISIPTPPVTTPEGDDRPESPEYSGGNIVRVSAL
T1 sequence (Q62897 1-655): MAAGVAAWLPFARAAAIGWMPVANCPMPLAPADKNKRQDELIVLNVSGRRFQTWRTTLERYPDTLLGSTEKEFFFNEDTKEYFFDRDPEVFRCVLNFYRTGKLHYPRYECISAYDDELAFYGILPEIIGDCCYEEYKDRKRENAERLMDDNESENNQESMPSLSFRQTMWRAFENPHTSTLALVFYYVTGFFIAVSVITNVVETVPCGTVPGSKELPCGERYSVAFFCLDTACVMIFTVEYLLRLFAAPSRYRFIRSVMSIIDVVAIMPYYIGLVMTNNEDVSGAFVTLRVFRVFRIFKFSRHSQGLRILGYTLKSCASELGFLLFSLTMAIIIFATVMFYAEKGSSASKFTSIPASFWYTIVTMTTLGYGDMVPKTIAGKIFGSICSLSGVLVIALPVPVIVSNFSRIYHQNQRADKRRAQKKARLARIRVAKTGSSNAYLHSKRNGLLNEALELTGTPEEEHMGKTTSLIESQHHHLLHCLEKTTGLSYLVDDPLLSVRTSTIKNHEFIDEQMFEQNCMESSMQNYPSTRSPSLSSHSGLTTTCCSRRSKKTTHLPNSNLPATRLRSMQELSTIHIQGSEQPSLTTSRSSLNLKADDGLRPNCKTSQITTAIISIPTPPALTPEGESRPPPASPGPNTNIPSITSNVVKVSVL
T1 sequence (Q9JM59 1-270 partner): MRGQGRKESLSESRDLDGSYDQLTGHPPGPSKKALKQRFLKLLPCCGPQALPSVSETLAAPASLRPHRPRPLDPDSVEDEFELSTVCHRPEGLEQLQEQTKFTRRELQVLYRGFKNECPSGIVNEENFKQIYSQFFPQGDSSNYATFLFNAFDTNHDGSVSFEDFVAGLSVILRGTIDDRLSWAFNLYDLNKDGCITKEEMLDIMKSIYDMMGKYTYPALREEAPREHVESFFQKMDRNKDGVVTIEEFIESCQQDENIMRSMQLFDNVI
Procedure: Ventricular cardiomyocytes from adult rats were isolated by enzymatic dissociation as previously reported. Adult Sprague Dawley rats (Charles River, Montreal, QC, Canada) were heparinized (5000 U) and sedated with 2% Isoflurane in an oxygen chamber (2 L/min). Hearts were excised by thoracotomy and cannulated via the aorta to be mounted on a Langendorff perfusion apparatus. Hearts were initially perfused with standard calcium-free Tyrode solution [21] at 37 °C (3–5 min), at a rate of 13 mL/min, and pre-digested by perfusion with low-calcium (150 μM) Tyrode solution supplemented with 220–280 U/mg of low-trypsin collagenase type 2 (Worthington Biochemical, Toronto, ON, Canada) for less than 15 min.
Once removed from the Langendorf perfusion apparatus, the heart septum and left ventricle were cut and gently shaken for 3 min in a 50/50 solution (digestion sln/low-calcium Tyrode solution) to disperse the isolated cells. The supernatant of the cell solution was filtered, and cells were left to settle in a 15 mL conical tube. The procedure was repeated 4 times, and cells were divided into fractions. Cardiomyocyte pellets from each fraction were washed with low-calcium Tyrode solution. For the final washing, supernatant solution was removed and replaced by standard Kraftbrühe (KB) solution [21], and the cells were kept at 4 °C.
INa and ITo were recorded from freshly isolated left ventricular cardiomyocytes and TSA201 cells after 48 h of transfection at room temperature. Electrical currents were recorded using the patch-clamp technique in whole-cell configuration via an Axopatch 200B amplifier (Molecular Devices, Sunnyvale, CA, USA). Cardiomyocytes and TSA201 cells were pre-incubated with 2Nal during 15 min and continuously perfused during recordings. In preliminary experiments, we measured the onset of the block by 2Nal by initially superfusing with control solution and subsequently washing in 2Nal solution. Recordings were acquired at 10 kHz and filtered to 5 kHz (lowpass Bessel filter). Whole-cell capacitance and series resistance compensation (85%) were optimized to reduce the capacitive artifact and minimize voltage error. Analysis of the recordings was performed using the Clampex 10.7 analysis software.
Extracellular solution for ITo recordings in cardiomyocytes contained (in mM) 126 NaCl, 5.4 KCl, 1 MgCl2, 20 HEPES, 2 CaCl2, and 11 glucose. The pH and osmolarity were adjusted to 7.4 and 295–300 mOsm, respectively, using NaOH and sucrose. Pipette solution contained (in mM) 90 K-aspartate, 30 KCl, 1 MgCl2, 20 HEPES, 5 NaCl, 5 MgATP, 5.5 Glucose. The pH was adjusted with KOH to 7.3 and osmolarity to 295–300 mOsm. For ITo recordings in TSA201 cells, extracellular solution contained 130 NaCl, 5 KCl, 1 MgCl2, 2.8 Na-acetate, 10 HEPES, 1.8 CaCl2, and 10 glucose. […]

[2] = test system: large conductance calcium-activated K^+ channels; conditions: cited from earlier work
[3] = test system: heart; conditions: cited from earlier work
Excerpt: (§1) Apelin is an endogenous peptide recognized for its therapeutic potential in hypertension and heart failure, as well as for its modulation of the endocrine system. This adipokine is primarily synthesized in adipose tissue but is also produced in the gastrointestinal tract, brain, kidney, lung, mammary glands, and cardiovascular system.

[4] = test system: artery; conditions: by enhancing nitric oxide (NO) production in the endothelium; cited from earlier work
Excerpt: as §1

[5] = test system: transient outward potassium current, ITo, and its sustained component, IKsus; parameters: method as in PMID 18424641, PMID 12215493; conditions: cited from earlier work
[6] = test system: cardiac sodium current (INa); conditions: cited from earlier work
Excerpt: At this stage, we cannot distinguish how specific affinities of Kv4.2 or Kv4.3 for 2Nal modulate the overall effect on ITo amplitude in native cardiomyocytes. However, our observation of apparent EC50 differing between the peak and sustained co ...

[7] = test system: ultra-rapid potassium current; parameters: method as in PMID 23106642; conditions: rabbit left-atrium cardiomyocytes; cited from earlier work
[8] = test system: rabbit left-atrium cardiomyocytes; parameters: method as in PMID 23106642; conditions: cited from earlier work
[9] = parameters: method as in PMID 10777510, PMID 18272843; conditions: isoforms identified in vivo; cited from earlier work

CSCC[C@H](NC(=O)[C@@H]1CCCN1C(=O)CNC(=O)[C@H](CCCCN)NC(=O)[C@H](Cc1c[nH]cn1)NC(=O)[C@H](CO)NC(=O)[C@H](CC(C)C)NC(=O)[C@H](CCCNC(=N)N)NC(=O)[C@@H]1CCCN1C(=O)[C@H](CCCNC(=N)N)NC(=O)[C@@H](N)CCC(N)=O)C(=O)N1CCC[C@H]1C(=O)N[C@@H](Cc1ccc2ccccc2c1)C(=O)O [2Nal]
Maximum block of ITo,peak ([1]; peak component, Gmax ratio, holding −80 mV, 500 ms steps, mean ± SEM): 34.2 ± 5.6%
IC50 ([1]; peak component, read-out: IC50 (half-maximal blocking concentration) for ITo,peak): 0.3 ± 0.1 nM
Maximum block of ITo,sus ([1]; sustained component, Gmax ratio, holding −80 mV, 500 ms steps, mean ± SEM): 47 ± 9.2%
IC50 ([1]; sustained component, read-out: IC50 (half-maximal blocking concentration) for ITo,sus): 0.024 ± 0.01 nM

apelin
effect on large conductance calcium-activated K+ channels [2]: inhibiting large conductance calcium-activated K^+ channels
cardiac inotropic effect [3]: strong positive cardiac inotropic effects
vasodilation [4]: triggers arterial vasodilation
effect on ITo and IKsus [5]: no effects
effect on cardiac sodium current INa [6]: increase in INa; also recorded: modulate cardiac sodium current (INa) gating and enhance its amplitude
effect on ultra-rapid potassium current [7]: blocks the ultra-rapid potassium current
effect on action potential duration [8]: reduces action potential duration (APD)

apelin-36: predominant apelin isoform identified in vivo (LVQPRGSRNGPGPWQGGRRKFRRQRPRLSHKGPMPF; Apelin-36; UniProt Q9ULZ1 42-77, looked up)
susceptibility to proteolysis [9]: highly susceptible to proteolysis
